Laboratory results reported in patent EP0054756A2, “Antibacterial benzylpyrimidines” (THE WELLCOME FOUNDATION LIMITED, priority 1980, dated 1982).
In brackets after ≈: the same amount, converted by molar mass. Several values for one entry are separate records, joined by “and”; a condition that tells them apart may be missing. Equal entries are not always repeated. Structures can show the parent of a compound that is named as a salt. Where two headings read alike, the source gives them in different places.

Assays:
Dihydrofolate reductase [1] = target: T1, Dihydrofolate reductase (Rattus norvegicus, UniProt Q920D2); test: Dihydrofolate reductase inhibition; format: biochemical, Rat liver
T1 construct: Rat liver; from tissue; host or cells: rat liver
T1 sequence (Q920D2 1-187): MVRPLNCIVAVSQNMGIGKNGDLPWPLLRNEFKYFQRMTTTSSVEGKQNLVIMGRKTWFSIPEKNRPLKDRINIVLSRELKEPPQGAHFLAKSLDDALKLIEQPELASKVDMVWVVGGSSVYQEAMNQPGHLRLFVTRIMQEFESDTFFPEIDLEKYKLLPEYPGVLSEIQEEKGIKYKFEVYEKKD

Dihydrofolate reductase [2] = target: Dihydrofolate reductase (Escherichia coli, UniProt P0ABQ4); test: Dihydrofolate reductase inhibition; format: biochemical, E. coli
Dihydrofolate reductase [3] = target: Dihydrofolate reductase (Neisseria gonorrhoeae, UniProt P04174); test: biochemical; details: N. gonorrhea enzyme; read-out: Dihydrofolate reductase inhibition, I50 x 10^8
St. pyogenes = test: In vitro antibacterial activity (MIC); format: cell-based; details: for MIC: Streptococcus pyogenes
E. coli CN 314 = test: In vitro antibacterial activity (MIC); format: cell-based; details: Escherichia coli, CN314
Staph.aureus CN 491 = test: In vitro antibacterial activity (MIC); format: cell-based; details: for MIC: Staphylococcus aureus
N. gonorrhea [4] = test: In vitro antibacterial activity versus TMP, Wellcome test; format: cell-based; details: activity relative to trimethoprim
Strep.Faecalis CN 478 = test: In vitro antibacterial activity (MIC); format: cell-based; details: for MIC: Enterococcus faecalis, CN478
Dihydrofolate reductase [5] = target: Dihydrofolate reductase (Plasmodium berghei, UniProt Q27713); test: biochemical; details: P. berghei enzyme; read-out: Dihydrofolate reductase inhibition, I50 x 10^8
Staphylococcus aureus [6] = test: In vitro MIC against bovine mastitis strains; format: cell-based; details: "OXFORD", Internal Ref. No. 6571, read-out: Approximate MIC
[7] = test system: Streptococcus dysgalactiae; test: In vitro MIC against bovine mastitis strains; format: cell-based; details: read-out: Approximate MIC
From the text: (§1) All organisms were isolated from the bovine udder.

Streptococcus uberis = test: In vitro MIC against bovine mastitis strains; format: cell-based; details: Internal Ref. No. 359, isolated from the bovine udder, read-out: Approximate MIC
From the text: as §1

Staphylococcus aureus [8] = test: In vitro MIC against bovine mastitis strains; format: cell-based; details: read-out: Approximate MIC
From the text: as §1

Streptococcus agalactiae = test: In vitro MIC against bovine mastitis strains; format: cell-based; details: read-out: Approximate MIC
From the text: as §1

[9] = LD50 intraperitoneal in male rats; details: rat, in vivo, ip
Description: The LD50's ( expressed in rng/kg intraperitoneal) of two compounds of the present invention were determined in male rats.

N. gonorrhea [10] = test: In vitro antibacterial activity versus TMP, Difco test; format: cell-based; details: activity relative to trimethoprim
[11] = Rat liver enzyme, read-out: Dihydrofolate reductase inhibition, I50 x 10^8
[12] = E. coli enzyme, read-out: Dihydrofolate reductase inhibition, I50 x 10^8
[13] = read-out: MIC St. pyogenes CN 10
[14] = read-out: MIC St. pyogenes S3640
[15] = Internal Ref. No. 366, isolated from the bovine udder
[16] = Internal Ref. No. 367, isolated from the bovine udder
[17] = Internal Ref. No. 316, isolated from the bovine udder
[18] = Internal Ref. No. 317, isolated from the bovine udder
[19] = Internal Ref. No. 348, isolated from the bovine udder
[20] = Internal Ref. No. 349, isolated from the bovine udder
[21] = Internal Ref. No. 352, isolated from the bovine udder
[22] = Internal Ref. No. 353, isolated from the bovine udder
[23] = Internal Ref. No. 321, isolated from the bovine udder
[24] = Internal Ref. No. 371, isolated from the bovine udder

| Compound | IC50 (Dihydrofolate reductase [3]) [nM] | MIC (St. pyogenes; [13]) [µg/mL] | MIC (St. pyogenes; [14]) [µg/mL] | MIC (E. coli CN 314) [µg/mL] | MIC (Staph.aureus CN 491; CN491) [µg/mL] | Act., vs TMP N. gonorrhea Wellcome test (N. gonorrhea [4]) | MIC (Strep.Faecalis CN 478) [µg/mL] | IC50 (Dihydrofolate reductase [5]) [nM] | IC50 (Dihydrofolate reductase [1]) [nM] | IC50 (Dihydrofolate reductase [2]) [nM] | MIC (Staphylococcus aureus [6]) [µM] | MIC [7, 15] [µM] | MIC [7, 16] [µM] | MIC (Streptococcus uberis) [µM] | MIC (Staphylococcus aureus [8]; [17]) [µM] | MIC (Staphylococcus aureus [8]; [18]) [µM] | MIC (Staphylococcus aureus [8]; [19]) [µM] | MIC (Staphylococcus aureus [8]; [20]) [µM] | MIC (Staphylococcus aureus [8]; [21]) [µM] | MIC (Staphylococcus aureus [8]; [22]) [µM] | other results |
| --- | --- | --- | --- | --- | --- | --- | --- | --- | --- | --- | --- | --- | --- | --- | --- | --- | --- | --- | --- | --- | --- |
| 2,4-diamino-5-(3,4-dime-thoxy-5-(3-p-nitrophenyl-propoxy)benzyl)pyrimidine |  |  |  |  |  |  |  |  |  |  |  |  |  |  |  |  |  |  |  |  | IC50 (Dihydrofolate reductase [1]; [11]): 25000 nM; IC50 (Dihydrofolate reductase [2]; [12]): 17 nM |
| 2,4-dimethoxy-5-(dime-thoxy-5-(3-p-aminophenyl-propoxy)benzyl)pyrimidine | 29 |  |  |  |  |  |  |  |  |  |  |  |  |  |  |  |  |  |  |  | IC50 (Dihydrofolate reductase [1]; [11]): 81000 nM; IC50 (Dihydrofolate reductase [2]; [12]): 7.2 nM |
| CCc1cc(Cc2cnc(N)nc2N)cc(CC)c1OCCOCc1ccccc1 [Example 6, 2,4-Diamino-5-(3,5-diethyl-4-(2-benzyloxyethoxy)benzyl)pyrimidine] | 48 | 3 (≈ 7.38 µM) | 1 (≈ 2.46 µM) | 10 (≈ 24.6 µM) | 3 (≈ 7.38 µM) | 0.35 | 0.3 (≈ 0.738 µM) | 34 |  |  |  |  |  |  |  |  |  |  |  |  | IC50 (Dihydrofolate reductase [1]; [11]): 26000 nM |
| COc1cc(Cc2cnc(N)nc2N)cc(OCCCCOc2ccccc2)c1OC [Example 10, 2,4-Diamino-5-(3,4-dimethoxy-5-(4-phenoxybutoxy)benzyl)pyrimidine hydrochloride] | 19 |  |  |  |  |  |  |  | 74000 | 4 |  |  |  |  |  |  |  |  |  |  |  |
| COc1cc(Cc2cnc(N)nc2N)cc(OCCSc2ccccc2)c1OC [Example 14, 2,4-Diamino-5-(3,4-dimethoxy-5-(2-(phenylthio)ethoxy)benzyl)pyrimidine] | 11.4 | 0.5 (≈ 1.21 µM) | 0.5 (≈ 1.21 µM) | 1 (≈ 2.42 µM) | 0.5 (≈ 1.21 µM) |  | 0.5 (≈ 1.21 µM) |  | 37000 | 5.3 |  |  |  |  |  |  |  |  |  |  |  |
| COc1cc(Cc2cnc(N)nc2N)cc(OCCSCc2ccccc2)c1OC [Example 15, 2,4-Diamino-5-(3,4-dimethoxy-5-(2-(benzylthio)ethoxy)benzyl)pyrimidine] | 18 | 0.5 (≈ 1.17 µM) | 0.5 (≈ 1.17 µM) | 0.5 (≈ 1.17 µM) | 0.05 (≈ 0.117 µM) |  | 0.1 (≈ 0.234 µM) |  | 47000 | 2 |  |  |  |  |  |  |  |  |  |  |  |
| COc1cc(Cc2cnc(N)nc2N)cc(OC)c1OC [Trimethoprim, reference compound] |  |  |  | 0.1 (≈ 0.344 µM) |  |  | 0.1 (≈ 0.344 µM) |  |  |  | 1 (≈ 0.29 µg/mL) | 3.3 (≈ 0.958 µg/mL) | 1 (≈ 0.29 µg/mL) | 10 (≈ 2.9 µg/mL) | 1 (≈ 0.29 µg/mL) | 0.33 (≈ 0.0958 µg/mL) | 1 (≈ 0.29 µg/mL) | 1 (≈ 0.29 µg/mL) | 3.3 (≈ 0.958 µg/mL) | 1 (≈ 0.29 µg/mL) | MIC (St. pyogenes; strain CN 10, cell prints compound/trimethoprim, read-out: MIC St. pyogenes CN 10): 0.5 µg/mL (≈ 1.72 µM); MIC St. pyogenes CN 10 (St. pyogenes; strain CN 10, cell prints compound/trimethoprim): 0.3/0.3 ug/ml and 0.3 ug/ml; MIC (Staph.aureus CN 491; CN491, strain CN 491, cell prints compound/trimethoprim): 0.5 µg/mL (≈ 1.72 µM); MIC Staph.aureus CN 491 (Staph.aureus CN 491; strain CN 491, cell prints compound/trimethoprim): 0.3 ug/ml and 0.3/0.3 ug/ml and 0.5/0.5 ug/ml; MIC Strep.Faecalis CN 478 (Strep.Faecalis CN 478; strain CN 478, cell prints compound/trimethoprim): 0.1 µg/mL (≈ 0.344 µM); MIC (Streptococcus agalactiae; [23]): 1 µM (≈ 0.29 µg/mL); MIC (Streptococcus agalactiae; [24]): 3.3 µM (≈ 0.958 µg/mL) |
| COc1cc(Cc2cnc(N)nc2N)cc(OCCCc2ccccc2)c1OC [compound 1, 2,4-Diamino-5-(3,4-dimethoxy-5-(3-phenylpropoxy)benzyl)pyrimidine] | 15 | 0.3 (≈ 0.761 µM) | 0.3 (≈ 0.761 µM) | 1 (≈ 2.54 µM) | 0.03 (≈ 0.0761 µM) | 5.46 | 0.1 (≈ 0.254 µM) | 100 | 94000 | 4.8 | 0.025 (≈ 0.00986 µg/mL) | 0.75 (≈ 0.296 µg/mL) | 0.25 (≈ 0.0986 µg/mL) | 2.5 (≈ 0.986 µg/mL) | 0.025 (≈ 0.00986 µg/mL) | 0.025 (≈ 0.00986 µg/mL) | 0.025 (≈ 0.00986 µg/mL) | 0.025 (≈ 0.00986 µg/mL) | 0.075 (≈ 0.0296 µg/mL) | 0.025 (≈ 0.00986 µg/mL) | LD50 [9]: > 100 mg/kg; Act., vs TMP N. gonorrhea Difco test (N. gonorrhea [10]): 12.81; MIC (Streptococcus agalactiae; [23]): 0.075 µM (≈ 0.0296 µg/mL); MIC (Streptococcus agalactiae; [24]): 0.75 µM (≈ 0.296 µg/mL) |
| COc1cccc(CCCOc2cc(Cc3cnc(N)nc3N)cc(OC)c2OC)c1 [compound 2, 2,4-Diamino-5-(3,4-dimethoxy-5-(3-(m-methoxyphenyl)propoxy)benzyl)pyrimidine] | 18 | 1 (≈ 2.36 µM) | 1 (≈ 2.36 µM) | 10 (≈ 23.6 µM) | 0.3 (≈ 0.707 µM) | 3.20 | 0.3 (≈ 0.707 µM) | 57 | 83000 | 57 | 0.025 (≈ 0.0106 µg/mL) | 0.75 (≈ 0.318 µg/mL) | 0.25 (≈ 0.106 µg/mL) | 2.5 (≈ 1.06 µg/mL) | 0.025 (≈ 0.0106 µg/mL) | 0.025 (≈ 0.0106 µg/mL) | 0.025 (≈ 0.0106 µg/mL) | 0.025 (≈ 0.0106 µg/mL) | 0.075 (≈ 0.0318 µg/mL) | 0.025 (≈ 0.0106 µg/mL) | LD50 [9]: > 100 mg/kg; Act., vs TMP N. gonorrhea Difco test (N. gonorrhea [10]): 9.63; MIC (Streptococcus agalactiae; [23]): 0.25 µM (≈ 0.106 µg/mL); MIC (Streptococcus agalactiae; [24]): 0.75 µM (≈ 0.318 µg/mL) |
| COc1cc(Cc2cnc(N)nc2N)cc(OCCCCc2ccccc2)c1OC [compound 3, 2,4-Diamino-5-(3,4-dimethoxy-5-(4-phenylbutoxy)benzyl)pyrimidine] | 18 | 0.1 (≈ 0.245 µM) | 0.1 (≈ 0.245 µM) | 3 (≈ 7.34 µM) | 0.03 (≈ 0.0734 µM) | 1.54 | 0.1 (≈ 0.245 µM) | 11 | 43000 | 2.3 | 0.025 (≈ 0.0102 µg/mL) | 0.75 (≈ 0.306 µg/mL) | 0.75 (≈ 0.306 µg/mL) | 0.25 (≈ 0.102 µg/mL) | 0.075 (≈ 0.0306 µg/mL) | 0.025 (≈ 0.0102 µg/mL) | 0.075 (≈ 0.0306 µg/mL) | 0.075 (≈ 0.0306 µg/mL) | 0.075 (≈ 0.0306 µg/mL) | 0.025 (≈ 0.0102 µg/mL) | Act., vs TMP N. gonorrhea Difco test (N. gonorrhea [10]): 11.35; MIC (Streptococcus agalactiae; [23]): 0.25 µM (≈ 0.102 µg/mL); MIC (Streptococcus agalactiae; [24]): 0.25 µM (≈ 0.102 µg/mL) |
| COc1cc(Cc2cnc(N)nc2N)cc(OCCOCc2ccccc2)c1OC [compound 4, 2,4-Diamino-5-(3,4-dimethoxy-5-(2-benzyloxyethoxy)benzyl)pyrimidine] | 78 |  |  |  |  |  |  |  | 300000 | 5.4 | 0.075 (≈ 0.0308 µg/mL) | 3.3 (≈ 1.35 µg/mL) | 1 (≈ 0.41 µg/mL) | 2.5 (≈ 1.03 µg/mL) | 0.25 (≈ 0.103 µg/mL) | 0.075 (≈ 0.0308 µg/mL) | 0.25 (≈ 0.103 µg/mL) | 0.075 (≈ 0.0308 µg/mL) | 0.25 (≈ 0.103 µg/mL) | 0.075 (≈ 0.0308 µg/mL) | MIC (Streptococcus agalactiae; [23]): 0.25 µM (≈ 0.103 µg/mL); MIC (Streptococcus agalactiae; [24]): 2.5 µM (≈ 1.03 µg/mL) |
| COc1cc(Cc2cnc(N)nc2N)cc(OCCCOc2ccccc2)c1OC [compound 5, 2,4-Diamino-5-(3,4-dimethoxy-5-(3-phenoxypropoxy)benzyl)pyrimidine] | 32 | 0.3 (≈ 0.731 µM) | 0.3 (≈ 0.731 µM) | 1 (≈ 2.44 µM) | 0.1 (≈ 0.244 µM) | 4.12 | 0.1 (≈ 0.244 µM) | 150 | 80000 | 37 |  |  |  |  |  |  |  |  |  |  | Act., vs TMP N. gonorrhea Difco test (N. gonorrhea [10]): 11.28 |
